In patent publication US6514942B1, “Methods and compositions for stimulating T-lymphocytes” (The Board of Regents, The University of Texas System, priority 1995, dated 2003):

Columns and labels:
HLA-A2 of T2 cells = molecular target: T1, HLA-A2 of T2 cells (Homo sapiens, UniProt P04439, D140Y/D185E/D98H/E176V/E277Q/G131W/G231S/I119V/I121R/I166T/I218V/L300P/L318F/N151K/N90K/P208A/P217A/Q86G/Q94H/R138H/R169H/T345S); assay: Reactivity of BB7.2 mAb with T2 cells after culture with peptide (immunofluorescence, FL1); type: cell-based; settings: peptide 50 μg/ml, overnight culture
T1 construct: cell surface expression of HLA-A2 is lower (30-40%) than in normal LBL lines transfected with HLA-A2; endogenous in cells; host or cells: T2 (transport deletion mutant) human lymphoblastoid cells, obtained from Dr. Peter Creswell
Experimental: FIG. 5B. Effects of HER-2 peptides on reactivity of BB7.2 mAb with T2 cells. Studies were performed as described in the legend to FIG. 5A.
mAbs to CD3 (OKT3-FITC), CD4 (OKT4-FITC) and CD8 (OKT8-FITC) were obtained from Ortho Diagnostic (Ortho, Raritan, N.J.), mAb W6/32 (anti-HLA, -A, -B, -C) from Dako (Dako-Dakopatts, Denmark); HLA-A2 reacting mAb BB7.2 and MA2.1 from ATCC. Immunofluorescence studies were performed as described in Example 1.
To determine whether these peptides and longer analogs affect HLA-A2 conformation as an indication of HLA-A2 binding, the effects of HER-2 peptides on the reactivity of conformationally dependent mAb MA2.1 and BB.7.2 were examined with HLA-A2 of T2 cells. The human cell line T2 has a defect affecting endogenous peptide loading of MHC class I molecules. As a consequence, cell surface expression of HLA-A2 is lower (30-40%) than in normal LBL lines transfected with HLA-A2 (e.g., C1R) but the reactivity of MA2.1 and BB.7.2 mAb is increased when certain HLA-A2 binding peptides are added to the culture medium (Anderson et al., 1993). Although most human MHC class I molecules cannot be induced at the low temperatures used for their murine counterparts because of fundamental structural differences between human and mouse class I (Anderson et al., 1993), the fact that they express few endogenous (mainly signal) peptides (Zweerink et al., 1993) increases the sensitivity of detection of peptide-HLA-A2 interaction.

OVA-1, HER-2high = assay: Lysis of peptide pre-pulsed autologous tumor by CTL-TAL (HLA-A2- system); type: cell-based, human; settings: OVA-1 pre-pulsed with peptide
Experimental: (§1) Tumor cells and fibroblasts were labeled with 200 μCi of ^51Cr (Na^51CrO4; Amersham, Arlington Heights, Ill.) for 90 min at 37° C. (Ioannides et al., 1991). Lymphoblastoid cells and HLA-A2 transfectants were labeled overnight in RPMI-FCS, then washed three times and incubated with effector cells in RPMI-FCS in an incubator with 5%. CO2 (Bednarek et al., 1991; Gammon et al., 1992). When peptide recognition was determined, targets were incubated with 25 μM of peptides overnight during ^51Cr labeling or with 10 μM peptide for 2 h at 37° C. in RPMI-FCS then washed three times before being incubated with effector cells. Separate controls for spontaneous and total lysis were made for each peptide-pulsed target (Ioannides et al., 1991; Bednarek et al., 1991; Gammon et al., 1992). After 4-5 h, 100 μl of supernatant was collected and counted. To determine maximum lysis in 20-h assays, plates were left undisturbed in the incubator and the supernatant was collected after overnight incubation. For cold target inhibition studies, C1R:A2 cells were preincubated with HER-2 or control peptides overnight, then washed and admixed with ^51Cr-labeled targets at 2:1 and 6:1 (cold:hot targets) ratios. Percentage lysis was calculated from the formula: 100×[(E−S)/(T−S)], where E is experimental release, S is release in the absence of CTL, and T is release in 2 M HCl.
(§2) To address whether these peptides interfere with tumor lysis by autologous tumor reactive CTL-TAL in HLA-A2^− systems, the lysis of OVA-1, HER-2^high (HLA-A1, 24, B8, 35, Cw4) and OVA-31, HER-2^high was determined by pre-pulsing with either C43 or as a control, C44 peptide (VS→II). Target lysis by CTL-1 was: OVA-1 (68%), K562 (18%), OVA-1 plus C43 (37%), and OVA-1 plus C44 (51%). […] However, C43 and C44 had no effect on lysis of OVA-31 by CTL-31.

OVA-31, HER-2high = assay: as above; type: cell-based, human; settings: OVA-31 pre-pulsed with peptide
Experimental: as §1, §2

FL1 of T2 cells stained with BB7.2 mAb (HLA-A2 of T2 cells) | Sequence | Target lysis by CTL-1 (OVA-1, HER-2high) | inhibition of lysis of OVA-1 by CTL-1 (OVA-1, HER-2high) | effect on lysis of OVA-31 by CTL-31 (OVA-31, HER-2high)
even higher increase in FL1 | ELVSEFSRV [Peptide C84, HER-2:971-979 analog, Met(P9) substituted by Val] |  |  | 
 | RFRELVSEFSRMAR [Peptide C43, HER-2:968-981 14mer peptide] | 37% | 45% | no effect
